Molecules are shown by their SMILES.

The results in this text go back to patent publication US10053457B2, “Hydroxyalkyl-piperazine derivatives as CXCR3 receptor modulators” (IDORSIA PHARMACEUTICALS LTD, priority 2015, dated 2018).

Type in all cases: cell-based
One data set has as its target CXCR3 (Homo sapiens (Human), UniProt P49682). Description: Receptor internalization assay in human whole blood (CXCR3 surface expression on CD4 positive cells, CXCL10). The following applies: final CXCL10 9 nM, 30 min at 37° C., mean values. On the procedure: Diluted compounds are then mixed with an equal volume of CXCL10 (Peprotech) diluted in PBS. Anticoagulated venous human whole blood is added to the mixture, which is then incubated in a CO2 incubator at 37° C. to allow for ligand mediated receptor internalization (final CXCL10 concentration is 9 nM). After 30 min, the blood is mixed with fluorescently labeled CXCR3 and CD4 specific antibodies (Becton Dickinson) and incubated on ice for 10 minutes. Samples are then mixed with BD FACS Lysing Solution (Becton Dickinson) in order to eliminate red blood cells. After washing the cells with PBS containing 0.5% BSA, the samples are then analyzed in a flow cytometer (FACS Canto II, Becton Dickinson). For data analysis using FACSDiva software (Becton Dickinson), the mean fluorescence corresponding to CXCR3 cell surface expression was determined on CD4 positive cells. The program GraphPad Prism or similar software is used to fit the data to a single site dose response curve and to calculate IC50 values.
(§1) In the case where IC50 values have been determined several times for the same compound, mean values are given.

For a further data set, the target named is human CXCR3A (Homo sapiens (Human), UniProt P49682). As to the kind of experiment: FLIPR assay (CXCL10-induced calcium signal). The following applies: CHO-K1 cells expressing human CXCR3A coupled to Galpha(16); CXCL10 agonist 20 nM; mean values.
Sequence of human CXCR3A (P49682 whole entry): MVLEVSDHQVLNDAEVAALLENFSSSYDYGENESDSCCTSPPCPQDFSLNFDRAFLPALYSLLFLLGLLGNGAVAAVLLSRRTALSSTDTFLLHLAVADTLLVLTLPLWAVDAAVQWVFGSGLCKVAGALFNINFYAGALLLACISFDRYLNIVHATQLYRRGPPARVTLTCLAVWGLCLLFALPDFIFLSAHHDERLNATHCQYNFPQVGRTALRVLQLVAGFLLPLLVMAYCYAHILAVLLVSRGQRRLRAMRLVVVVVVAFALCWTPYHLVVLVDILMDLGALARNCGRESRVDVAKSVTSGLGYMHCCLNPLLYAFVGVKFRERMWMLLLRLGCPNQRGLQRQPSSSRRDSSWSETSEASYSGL
Source text: as §1

The next data set has as its target hERG K channel (Homo sapiens (Human), UniProt Q12809). As to the kind of experiment: hERG Q-Patch assay. To be noted: CHO cells expressing hERG, K+ tail current 3 min after application, mean of two or three experiments. The protocol: Compounds are evaluated for block of the hERG K channel using CHO cells stably expressing the hERG gene (accession number U04270, bSys, Witterswil, Switzerland) and the QPatch robotic platform (Sophion, Ballerup, Denmark) in single-cell mode at room temperature. Cells are grown in culture flasks at 37° C. in 5% CO2, in culture medium (Ham's F-12 Nutrient Mixture, Invitrogen 21765-029) supplemented with 9% (v/v) fetal calf serum, 0.9% Penicillin/Streptomycin (10,000 U/mL, Invitrogen 15140148), 100 μg/mL Hygromycin B (Invitrogen 10687010). When the cells are ˜80% confluent (every 2-3 days), they are either split for further culture or used for electrophysiology. For further culture, cells are detached with 0.25% Trypsin EDTA solution (Invitrogen 25200-056) and a fraction of the cells (10-30%) is reseeded in culture medium. For electrophysiology, on the experimental day, cells are detached with 0.25% Trypsin EDTA solution and all cells are suspended in suspension medium (293 SFM II, Invitrogen 11686-029) supplemented with 20 mM HEPES and 0.04 mg/mL Trypsin inhibitor. Cells are kept in suspension medium at 32-35° C. in the QPatch robot until use, at which time aliquots are transferred to the extracellular solution (in mM: NaCl 150; KCl 4; CaCl2 1.2; MgCl2 1; HEPES 10; pH 7.4 with NaOH) containing 0.3% v/v DMSO and applied to the test plates. K^+ currents are measured with the patch-voltage-clamp technique in the whole-cell configuration with the internal solution (in mM: KCl, 140; NaCl, 10; MgCl2, 1; HEPES, 10: EGTA, 5; pH=7.2 with KOH). Currents are low-pass filtered using the internal Bessel filter of the QPatch robot with a cut-off frequency of 2 kHz and are digitized at 10 kHz. K^+ tail currents are produced from a holding voltage of −80 mV by a 500-ms depolarization to +20 mV followed by a 500-ms repolarization to −40 mV; tail current amplitudes are measured at the end of the repolarization to −40 mV. The pulse pattern is repeated every 10 sec during the experiment, baseline K^+ current is measured after 3 min in extracellular solution, test-solution containing compound is then applied, and K^+ current in presence of compound is measured 3 minutes after application to the cells. The respective test-solution is prepared by (1) dissolving the test-compound in pure DMSO, (2) diluting this DMSO solution in extracellular solution, and (3) adding further DMSO, such that the final test-solution has a concentration of either 300 nM or 3000 nM of the test-compound and contains 0.3% v/v DMSO. Compound effects are quantified as % block by dividing the current in presence of compound by the baseline current; two or three experiments are performed for each compound and the final value represents the mean of the results of each experiment.
On the technique in general: The hERG channel carries a current that helps repolarise heart muscle cells.

Sequence of hERG K channel (Q12809 whole entry): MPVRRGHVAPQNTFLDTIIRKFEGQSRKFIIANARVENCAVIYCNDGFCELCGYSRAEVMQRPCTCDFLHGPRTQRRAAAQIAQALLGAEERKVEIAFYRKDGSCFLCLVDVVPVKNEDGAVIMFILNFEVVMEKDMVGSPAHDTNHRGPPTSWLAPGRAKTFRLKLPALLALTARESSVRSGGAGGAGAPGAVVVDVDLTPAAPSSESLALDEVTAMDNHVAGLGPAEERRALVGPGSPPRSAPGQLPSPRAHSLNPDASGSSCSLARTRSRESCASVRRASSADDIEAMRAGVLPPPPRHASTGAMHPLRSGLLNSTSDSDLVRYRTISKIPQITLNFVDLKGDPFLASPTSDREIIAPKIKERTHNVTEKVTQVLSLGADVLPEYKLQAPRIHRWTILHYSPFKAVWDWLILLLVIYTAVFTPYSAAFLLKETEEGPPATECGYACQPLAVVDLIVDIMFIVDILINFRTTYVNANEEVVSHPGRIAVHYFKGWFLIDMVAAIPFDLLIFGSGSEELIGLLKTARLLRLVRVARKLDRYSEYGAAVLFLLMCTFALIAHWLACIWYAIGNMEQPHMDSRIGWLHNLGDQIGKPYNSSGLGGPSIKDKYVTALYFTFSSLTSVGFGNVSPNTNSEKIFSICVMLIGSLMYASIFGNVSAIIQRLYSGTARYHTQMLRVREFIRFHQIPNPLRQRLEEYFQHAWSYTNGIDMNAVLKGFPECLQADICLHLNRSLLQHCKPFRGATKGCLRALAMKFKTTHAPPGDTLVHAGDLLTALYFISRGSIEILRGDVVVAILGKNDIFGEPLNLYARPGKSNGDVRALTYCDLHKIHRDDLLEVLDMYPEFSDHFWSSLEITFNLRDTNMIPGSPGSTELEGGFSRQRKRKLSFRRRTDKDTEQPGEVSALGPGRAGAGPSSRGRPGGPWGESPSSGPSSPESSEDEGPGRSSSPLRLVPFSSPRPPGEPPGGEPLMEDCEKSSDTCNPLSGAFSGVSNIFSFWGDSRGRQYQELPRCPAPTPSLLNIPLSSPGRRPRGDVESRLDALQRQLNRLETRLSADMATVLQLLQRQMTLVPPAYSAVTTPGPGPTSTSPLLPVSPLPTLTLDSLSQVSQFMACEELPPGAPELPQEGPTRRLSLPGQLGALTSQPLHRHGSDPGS
Sequence of CXCR3 (P49682 whole entry): as the sequence (P49682 whole entry) above

For the compound `O=C(Cn1cnc(C(F)F)n1)N1CCN(c2sc(C(F)(F)F)nc2-c2cnc(C(F)(F)F)nc2)C[C@@H]1CO` [Example 38, 2-(3-Difluoromethyl-[1,2,4]triazol-1-yl)-1-{(R)-2-hydroxymethyl-4-[2-trifluoromethyl-4-(2-trifluoromethyl-pyrimidin-5-yl)-thiazol-5-yl]-piperazin-1-yl}-ethanone], the IC50 came out at 258 nM at CXCR3 and 8.6 nM on human CXCR3A.
In the case of `CCc1ccn(CC(=O)N2CCN(c3sc(C(F)(F)F)nc3-c3cnc(C(F)(F)F)nc3)C[C@H]2CO)n1` [Example 43, 2-(3-Ethyl-pyrazol-1-yl)-1-{(S)-2-hydroxymethyl-4-[2-trifluoromethyl-4-(2-trifluoromethyl-pyrimidin-5-yl)-thiazol-5-yl]-piperazin-1-yl}-ethanone], the values for the half-inhibitory concentration (IC50) against CXCR3 and on human CXCR3A were 40.3 nM and 1.2 nM, respectively. Also, the “% block” value is reported as 5% on hERG K channel (concentration 300 nM) and 25% on hERG K channel (concentration 3000 nM).
On the same counts, the results for `O=C(Cn1cnc(C2CC2)n1)N1CCN(c2sc(C(F)(F)F)nc2-c2cnc(C(F)(F)F)nc2)C[C@H]1CO` [Example 3, 2-(3-Cyclopropyl-[1,2,4]triazol-1-yl)-1-{(S)-2-hydroxymethyl-4-[2-trifluoromethyl-4-(2-trifluoromethyl-pyrimidin-5-yl)-thiazol-5-yl]-piperazin-1-yl}-ethanone] are 191 nM, 3 nM, 0% and 12%.
The like results for `Cc1nc(C)n(CC(=O)N2CCN(c3sc(C(F)(F)F)nc3-c3cnc(C(F)(F)F)nc3)C[C@H]2CO)n1` [Example 2, 2-(3,5-Dimethyl-[1,2,4]triazol-1-yl)-1-{(S)-2-hydroxymethyl-4-[2-trifluoromethyl-4-(2-trifluoromethyl-pyrimidin-5-yl)-thiazol-5-yl]-piperazin-1-yl}-ethanone] were, in that order, 463 nM, 6 nM, −3% and −4%.
On the same counts, the results for `Cc1nc(C)n(CC(=O)N2CCN(c3sc(C(F)(F)F)nc3-c3cnc(C(F)(F)F)nc3)C[C@@H]2CO)n1` [Example 12, 2-(3,5-Dimethyl-[1,2,4]triazol-1-yl)-1-{(R)-2-hydroxymethyl-4-[2-trifluoromethyl-4-(2-trifluoromethyl-pyrimidin-5-yl)-thiazol-5-yl]-piperazin-1-yl}-ethanone] are 324 nM, 6.9 nM, 1% and 3%.
`O=C(Cn1cnc2ccccc21)N1CCN(c2sc(C(F)(F)F)nc2-c2cnc(C(F)(F)F)nc2)C[C@@H]1CO` [Example 13, 2-Benzoimidazol-1-yl-1-{(R)-2-hydroxymethyl-4-[2-trifluoromethyl-4-(2-trifluoromethyl-pyrimidin-5-yl)-thiazol-5-yl]-piperazin-1-yl}-ethanone]: the values for the IC50 on CXCR3 and on human CXCR3A were 1050 nM and 1.2 nM, respectively. For the same compound, the “% block” value at hERG K channel (concentration 300 nM) turned out to be 5%; at hERG K channel (concentration 3000 nM), 17%.
On the same counts, the results for `Cc1ncn(CC(=O)N2CCN(c3sc(C(F)(F)F)nc3-c3cnc(C(F)(F)F)nc3)C[C@@H]2CO)n1` [Example 16, 1-{(R)-2-Hydroxymethyl-4-[2-trifluoromethyl-4-(2-trifluoromethyl-pyrimidin-5-yl)-thiazol-5-yl]-piperazin-1-yl}-2-(3-methyl-[1,2,4]triazol-1-yl)-ethanone] are 542 nM, 3.9 nM, 1% and 1%.
On the same counts, the results for `O=C(Cn1cnc(C2CC2)n1)N1CCN(c2sc(C(F)(F)F)nc2-c2cnc(C(F)(F)F)nc2)C[C@H]1CCO` [Example 31, 2-(3-Cyclopropyl-[1,2,4]triazol-1-yl)-1-{(R)-2-(2-hydroxy-ethyl)-4-[2-trifluoromethyl-4-(2-trifluoromethyl-pyrimidin-5-yl)-thiazol-5-yl]-piperazin-1-yl}-ethanone] are 73.8 nM, 4.4 nM, 2% and 23%.
`O=C(Cn1cnc(-c2ccccn2)n1)N1CCN(c2sc(C(F)(F)F)nc2-c2cnc(C(F)(F)F)nc2)C[C@@H]1CO` [Example 23, 1-{(R)-2-Hydroxymethyl-4-[2-trifluoromethyl-4-(2-trifluoromethyl-pyrimidin-5-yl)-thiazol-5-yl]-piperazin-1-yl}-2-(3-pyridin-2-yl-[1,2,4]triazol-1-yl)-ethanone]: the IC50 is 2730 nM against CXCR3 and 35 nM at human CXCR3A.
As for `Cc1ccn(CC(=O)N2CCN(c3sc(C(F)(F)F)nc3-c3cnc(C(F)(F)F)nc3)C[C@H]2CO)n1` [Example 42, 1-{(S)-2-Hydroxymethyl-4-[2-trifluoromethyl-4-(2-trifluoromethyl-pyrimidin-5-yl)-thiazol-5-yl]-piperazin-1-yl}-2-(3-methyl-pyrazol-1-yl)-ethanone], the values for the IC50 on CXCR3 and on human CXCR3A were 59.7 nM and 1 nM, respectively. The “% block” value is on record as 2% at hERG K channel (concentration 300 nM) and 15% on hERG K channel (concentration 3000 nM).
For the compound `O=C(Cn1cnc2cccnc21)N1CCN(c2sc(C(F)(F)F)nc2-c2cnc(C(F)(F)F)nc2)C[C@@H]1CO` [Example 26, 1-{(R)-2-Hydroxymethyl-4-[2-trifluoromethyl-4-(2-trifluoromethyl-pyrimidin-5-yl)-thiazol-5-yl]-piperazin-1-yl}-2-imidazo[4,5-b]pyridin-3-yl-ethanone], the results for the IC50 at CXCR3 and on human CXCR3A were 74.2 nM and 3.5 nM, respectively.
The like results for `CCc1nc(C)n(CC(=O)N2CCN(c3sc(C(F)(F)F)nc3-c3cnc(C(F)(F)F)nc3)C[C@@H]2CO)n1` [Example 24, 2-(3-ethyl-5-methyl-[1,2,4]triazol-1-yl)-1-{(R)-2-hydroxymethyl-4-[2-trifluoromethyl-4-(2-trifluoromethyl-pyrimidin-5-yl)-thiazol-5-yl]-piperazin-1-yl}-ethanone] were, in that order, 355 nM and 7.6 nM.
The like results for `CCc1nc(C)nn1CC(=O)N1CCN(c2sc(C(F)(F)F)nc2-c2cnc(C(F)(F)F)nc2)C[C@@H]1CO` [Example 25, 2-(5-ethyl-3-methyl-[1,2,4]triazol-1-yl)-1-{(R)-2-hydroxymethyl-4-[2-trifluoromethyl-4-(2-trifluoromethyl-pyrimidin-5-yl)-thiazol-5-yl]-piperazin-1-yl}-ethanone] were, in that order, 664 nM and 3.6 nM.
The like results for `CC(O)c1ncn(CC(=O)N2CCN(c3sc(C(F)(F)F)nc3-c3cnc(C(F)(F)F)nc3)C[C@@H]2CO)n1` (stereo partly drawn) [Example 21, 2-[3-(1-Hydroxy-ethyl)-[1,2,4]triazol-1-yl]-1-{(R)-2-hydroxymethyl-4-[2-trifluoromethyl-4-(2-trifluoromethyl-pyrimidin-5-yl)-thiazol-5-yl]-piperazin-1-yl}-ethanone] were, in that order, 737 nM and 4.3 nM.

One may read the IC50 as the concentration that gives 50% inhibition.
